Data reported in PubChem BioAssay AID372 (MTDP, 2006).
Active and inactive are the calls of the source. Cut-off read from the data, not from the text of the source: active = inhibition above about 50%; inactive = the rest.

The molecules below were run against Gag-Pol polyprotein (Human immunodeficiency virus type 1 group M subtype B (isolate HXB2)) (UniProt P04585) (assay: RNase H inhibition, HIV 1 Gag Pol polyprotein, FRET biochemical assay, screening (AID 372)). Conditions: HIV-1 RT RNase H, FRET RNA/DNA substrate fluorescence.
Work on O=C1Nc2ccc(I)cc2C1(O)N1CCOCC1 (stereo not drawn) yielded an IC50 of 6.3 µM. O=C(Oc1ccccc1)Oc1c(Cl)cc2oc(=O)sc2c1Cl was tested, and the IC50 was 19 µM. For Cc1sc(NC(=O)c2cccc([N+](=O)[O-])c2)c(C(N)=O)c1C, the IC50 was “inactive”. Work on COc1cccc2cc(C(N)=O)c(=O)oc12 yielded an IC50 of 4 µM. Cc1ccc(-c2n[nH]c(=S)n2/N=C/c2ccc(O)c(O)c2O)cc1 gave an IC50 of 1.8 µM. Work on N#Cc1c(N)nc(SCC(=O)c2ccc(O)c(O)c2)c(C#N)c1-c1ccc(O)cc1 yielded an IC50 of 0.9 µM. Work on COc1ccc(-c2c(C#N)c(N)nc(SCC(=O)c3ccc(O)c(O)c3)c2C#N)cc1 yielded an IC50 of 1.8 µM. With N#C/C(=C\Nc1ccc(S(=O)(=O)Nc2nccs2)cc1)c1nc(-c2ccc(Cl)cc2)cs1 the IC50 was 4.1 µM. In the case of Cc1ccc(C(=O)Nc2sc(C)c(C)c2C(N)=O)cc1, the IC50 is reported as 0.6 µM. O=C1C=CC(=O)C(c2cc(Cl)ccc2Cl)=C1 was tested, and the IC50 was 2.1 µM. Work on O=c1[nH]c(=S)n(-c2ccccc2F)c(O)c1C=C1C=CC=N1 yielded an IC50 of 2.3 µM. In the case of COc1ccc2c(c1)N(C(=O)CN1C(=O)c3ccccc3C1=O)C(C)(C)c1ssc(=S)c1-2, the IC50 is reported as 3 µM. COc1cc(/C=N\c2sc3c(c2C(=O)NCc2ccccc2)CCCC3)cc(Cl)c1O was tested, and the IC50 was 2.1 µM. In the case of CCC(=O)Nc1sc2c(c1C(=O)Nc1ccc(OC)cc1)CCCCC2, the IC50 is reported as “inactive”. COc1ccc(C(=O)NC(=S)Nc2ccc3nn(-c4ccc(C)c(Cl)c4)nc3c2)cc1[N+](=O)[O-] gave an IC50 of 17 µM. Work on Cc1cccc(NCC(=O)N/N=C\c2c(Br)cc(Br)c(O)c2Br)c1 yielded an IC50 of 62 µM. Molecule Cc1cc(C)c2c(=O)[nH]c(SCC(=O)c3ccc(O)c(O)c3)nc2n1 has an IC50 of 3.4 µM. For COc1ccccc1NC(=O)c1c(NC(=O)Cc2ccccc2)sc2c1CCCCC2, the IC50 was “inactive”. Molecule O=C(NC(=S)Nc1cc(-c2nc3ccccc3s2)ccc1Cl)c1ccc(F)cc1 has an IC50 of 9.1 µM. For Cc1ccc(C(=O)NC(=S)Nc2ccc(-c3nc4ccccc4s3)cc2)cc1[N+](=O)[O-], the IC50 was 20 µM. For Cc1sc(NC(=O)c2ccco2)c(C(N)=O)c1C, the IC50 was 3.2 µM. In the case of COC(=O)c1c(N)sc(C(=O)Nc2ccc(OC)cc2)c1C, the IC50 is reported as 6.6 µM. NC(=O)c1c(NC(=O)COc2ccccc2)sc2c1CCCCC2 was tested, and the IC50 was “inactive”. With CCOc1ccc(C(=O)Nc2ccc3c(c2)C(=O)c2ccccc2C3=O)cc1 the IC50 was 8 µM. With O=C1NC(=S)N(c2ccccc2F)C(=O)C1=Cc1ccco1 the IC50 was 2.2 µM. Molecule CC(C)OC(=O)c1cc(O)c(O)c(O)c1 has an IC50 of 1.3 µM. Work on O=C1NC(=S)N(c2ccccc2F)C(=O)/C1=C/c1ccc(OCc2cccc(C(=O)O)c2)cc1 yielded an IC50 of 9 µM. With O=C1C(Cl)=CC(=NS(=O)(=O)c2ccccc2)C=C1Cl the IC50 was 3.1 µM. Cc1cccc(NC(=O)c2c(NC(=O)c3ccc([N+](=O)[O-])cc3)sc3c2CCCC3)c1 was tested, and the IC50 was 1.5 µM. Work on Cc1sc2nc(-c3ccc([N+](=O)[O-])cc3)[nH]c(=O)c2c1C yielded an IC50 of 0.55 µM. O=S(=O)(Nc1cccc(C(F)(F)F)c1)c1ccc2ccccc2c1 showed an IC50 of 25 µM. CC1=C(C)CC(C(=O)Nc2ccc(N3C(=O)c4ccccc4C3=O)cc2)C(C(=O)O)C1 (stereo not drawn) gave an IC50 of 100 µM. COc1ccc(N2C(=O)/C(=C\c3cn(CC(=O)Nc4ccccc4)c4ccccc34)C(=O)NC2=S)cc1 showed an IC50 of 5 µM. In the case of C=CCn1c(N)c(-c2nc3ccccc3[nH]2)sc1=S, the IC50 is reported as 2.8 µM. Molecule O=C1C=CC(=NS(=O)(=O)c2ccc(Cl)c([N+](=O)[O-])c2)C=C1 has an IC50 of 1.5 µM. O=C(Cc1ccccc1Cl)c1ccc(O)c(O)c1O showed an IC50 of 2 µM. Cc1ccc(S(=O)(=O)N=C2C=CC(=O)C=C2)c(C)c1 gave an IC50 of 1.9 µM. For Cc1ccc(NC(=O)c2c(NC(=O)c3ccccc3F)sc3c2CCCCC3)cc1, the IC50 was “inactive”. With O=C1/C(=C/c2ccco2)C(=O)N(c2ccc(Br)cc2)C(=S)N1c1ccccc1 the IC50 was 10.2 µM. Cc1c(Cl)ccc2c1NC(C(=O)O)C1CC=CC21 (stereo not drawn) showed an IC50 of 22 µM. Nc1ccc(S(=O)(=O)O)c2cccc(O)c12 gave an IC50 of 10 µM. For Cc1sc(NC(=O)c2ccc(Br)o2)c(C(N)=O)c1C, the IC50 was 5.5 µM. With O=C1C=C/C(=N\S(=O)(=O)c2cc(Cl)ccc2Cl)C=C1Cl the IC50 was 2 µM. O=C1NC(=S)S/C1=C/c1cccc(OCc2ccc(Cl)c(Cl)c2)c1 gave an IC50 of 4 µM. For CCOc1ccc(N2C(=O)/C(=C/c3ccc(I)o3)C(=O)NC2=S)cc1, the IC50 was 4.8 µM. Molecule Cc1cc(I)c2c(c1)C1C=CCC1C(C(=O)O)N2 (stereo not drawn) has an IC50 of 100 µM. For O=C(Nc1ccc(N2CCN(C(=O)c3ccccc3)CC2)cc1)c1ccc(-c2ccccc2)cc1, the IC50 was 4.2 µM. Cc1ccc(-n2c(/C=C/c3ccc(O)c(O)c3)nc3ccccc3c2=O)cc1 gave an IC50 of 3.8 µM. In the case of COc1ccc(NC(=O)c2c(N)sc(-c3ccccc3)c2C)cc1, the IC50 is reported as 7 µM. For O=C1C(Cl)=C/C(=N\S(=O)(=O)c2ccc(Cl)cc2)C(Cl)=C1Cl, the IC50 was 4 µM. For O=C(Nc1sc2c(c1C(=O)Nc1cccc3ccccc13)CCCCC2)c1ccccc1F, the IC50 was “inactive”. Cc1ccc(C)n1-c1ccc(Br)cc1C(=O)O showed an IC50 of 32 µM. O=C1NC(=S)N(c2cccc(Cl)c2)C(=O)/C1=C\C=C\c1ccco1 was tested, and the IC50 was 7.7 µM. Cc1cc(Br)ccc1N1C(=O)/C(=C/c2ccco2)C(=O)NC1=S showed an IC50 of 7 µM. In the case of O=C1NC(=S)N(c2ccc(Cl)cc2)C(=O)/C1=C/c1ccc(Br)o1, the IC50 is reported as 1.7 µM. For O=C1c2ccccc2C(=O)N1c1ccc(-c2nc3ccc(N4C(=O)c5ccccc5C4=O)cc3[nH]2)cc1, the IC50 was 4 µM. Cc1cc(C(=O)O)ccc1-n1c(C)ccc1C was tested, and the IC50 was 100 µM. O=C1NC(=S)N(c2ccc(Cl)cc2)C(=O)/C1=C/c1ccco1 showed an IC50 of 8.9 µM. In the case of O=C1/C(=C/c2ccc(O)c(O)c2)SC(=S)N1C1CCCCC1, the IC50 is reported as 5.7 µM. O=C1C=CC(=O)C(c2cccc(Cl)c2)=C1 showed an IC50 of 2.3 µM. With Cc1ccc(-c2cc(C(=O)Nc3sc(C(=O)OC(C)C)c(C)c3C(N)=O)c3ccccc3n2)s1 the IC50 was “inactive”. O=C1C(Cl)=C(NC(=O)c2ccccc2)C(=O)C(Cl)=C1NC(=O)c1ccccc1 showed an IC50 of 4 µM. With C=CCN1C(=O)/C(=C\c2ccc([N+](=O)[O-])o2)C(=O)NC1=S the IC50 was 75 µM. For Cc1sc(NC(=O)c2ccc3c(c2)OCO3)c(C(N)=O)c1C, the IC50 was “inactive”. NC(=O)c1c(N)sc2c1CCCCC2 gave an IC50 of 2 µM. In the case of CCN1C(=O)/C(=C/c2ccoc2)C(=O)NC1=S, the IC50 is reported as 40 µM. For COc1ccc(N2C(=O)/C(=C/c3ccc(I)o3)C(=O)NC2=S)cc1, the IC50 was 3.7 µM. For Oc1ccc(/C=N/Nc2nncc(-c3ccccc3)n2)c(O)c1O, the IC50 was 6.8 µM.
